Experimental data reported in US10730889B2, “Amido spirocyclic amide and sulfonamide derivatives” (Forma TM, LLC, priority 2012, dated 2020).

These molecules were tested on A2780 cells (assay: In-vitro cell proliferation assay (SRB, 72 hours)). Details: Homo sapiens, A2780, 72 h, A2780 cells, 72 hours, SRB; read-out: Cell Proliferation (IC50).
Assay type: cell-based

Row | IC50 | Structure (SMILES)
1 | 1530 nM | O=C(NCC1CC12CCN(C(=O)C1CCOCC1)CC2)c1cc2ccncc2o1 (centres unmarked) [Example 60, N-[[6-(tetrahydropyran-4-carbonyl)-6-azaspiro[2.5]octan-2-yl]methyl]furo[2,3-c]pyridine-2-carboxamide]
2 | 15.9 nM | O=C(NCC1CC12CCN(C(=O)c1cc3ncccn3n1)CC2)c1cc2ccncc2o1 (centres unmarked) [Example 313, N-[[6-(pyrazolo[1,5-a]pyrimidine-2-carbonyl)-6-azaspiro[2.5]octan-2-yl]methyl]furo[2,3-c]pyridine-2-carboxamide]
3 | 2000 nM | O=C(NCC1CC12CCN(C(=O)Cn1ccnc1)CC2)c1cc2ccncc2o1 (centres unmarked) [Example 26, N-[[6-(2-imidazol-1-ylacetyl)-6-azaspiro[2.5]octan-2-yl]methyl]furo[2,3-c]pyridine-2-carboxamide]
4 | 33.8 nM | O=C(NCC1CC12CCN(C(=O)c1c[nH]nc1C1CC1)CC2)c1cc2ccncc2o1 (centres unmarked) [Example 332, N-[[6-(3-cyclopropyl-1H-pyrazole-4-carbonyl)-6-azaspiro[2.5]oetan-2-yl]methyl]furo[2,3-c]pyridine-2-carboxamide]
5 | 2000 nM | CC(=O)N1CC(C(=O)N2CCC3(CC2)CC3CNC(=O)c2cc3ccncc3o2)C1 (centres unmarked) [Example 145, N-[[6-(1-acetylazetidine-3-carbonyl)-6-azaspiro[2.5]octan-2-yl]methyl]furo[2,3-c]pyridine-2-carboxamide]
6 | 1340 nM | O=C(NCC1CC12CCN(C(=O)CC1CCS(=O)(=O)C1)CC2)c1cc2ccncc2o1 (centres unmarked) [Example 80, N-[[6-[2-(1,1-dioxothiolan-3-yl)acetyl]-6-azaspiro[2.5]octan-2-yl]methyl]furo[2,3-c]pyridine-2-carboxamide]
7 | 2000 nM | O=C(NCC1CC12CCN(C(=O)c1ccnc3ncccc13)CC2)c1cc2ccncc2o1 (centres unmarked) [Example 267, N-[[6-(1,8-naphthyridine-4-carbonyl)-6-azaspiro[2.5]octan-2-yl]methyl]furo[2,3-c]pyridine-2-carboxamide]
8 | 74.5 nM | O=C(NCC1CC12CCN(C(=O)C1CCN(c3cccnn3)C1)CC2)c1cc2ccncc2o1 (centres unmarked) [Example 146, N-[[6-(1-pyridazin-3-ylpyrrolidine-3-carbonyl)-6-azaspiro[2.5]octan-2-yl)methyl]furo[2,3-c]pyridine-2-carboxamide]
9 | 194 nM | CS(=O)(=O)c1ccccc1C(=O)N1CCC2(CC1)CC2CNC(=O)c1cc2ccncc2o1 (centres unmarked) [Example 69, N-[[6-(2-methylsulfonylbenzoyl)-6-azaspiro[2.5]octan-2-yl]methyl]furo[2,3-c]pyridine-2-carboxamide]
10 | 70.2 nM | O=C(NCC1CC12CCN(C(=O)c1ccc3[nH]cnc3c1)CC2)c1cc2ccncc2o1 (centres unmarked) [Example 241, N-[[6-(1H-benzimidazole-5-carbonyl)-6-azaspiro[2.5]octan-2-yl]methyl]furo[2,3-c]pyridine-2-carboxamide]
11 | 2000 nM | O=C1CN(CC(=O)N2CCC3(CC2)CC3CNC(=O)c2cc3ccncc3o2)CCN1 (centres unmarked) [Example 91, N-[[6-[2-(3-oxopiperazin-1-yl)acetyl]-6-azaspiro[2.5]octan-2-yl]methyl]furo[2,3-c]pyridine-2-carboxamide]
12 | 1470 nM | O=C(NCC1CC12CCN(C(=O)c1ccc3nonc3c1)CC2)c1cc2ccncc2o1 (centres unmarked) [Example 266, N-[[6-(2,1,3-benzoxadiazole-5-carbonyl)-6-azaspiro[2.5]octan-2-yl]methyl]furo[2,3-c]pyridine-2-carboxamide]
13 | 596 nM | O=C(NCC1CC12CCN(C(=O)c1cc(C(F)(F)F)ccn1)CC2)c1cc2ccncc2o1 (centres unmarked) [Example 256, N-[[6-[4-(trifluoromethyl]pyridine-2-carbonyl]6-azaspiro[2.5]octan-2-yl]methyl]furo[2,3-c]pyridine-2-carboxamide]
14 | 29.7 nM | O=C(NCC1CC12CCN(C(=O)c1ccnc3[nH]ccc13)CC2)c1cc2ccncc2o1 (centres unmarked) [Example 239, N-[[6-(1H-pyrrolo[2,3-b]pyridine-4-carbonyl)-6-azaspiro[2.5]octan-2-yl]methyl]furo[2,3-c]pyridine-2-carboxamide]
15 | 743 nM | Cc1n[nH]cc1C(=O)N1CCC2(CC1)CC2CNC(=O)c1cc2ccncc2o1 (centres unmarked) [Example 106, N-[[6-(3-methyl-1H-pyrazole-4-carbonyl)-6-azaspiro[2.5]octan-2-yl]methyl]furo[2,3-c]pyridine-2-carboxamide]
16 | 590 nM | Cc1nn(C)cc1C(=O)N1CCC2(CC1)CC2CNC(=O)c1cc2ccncc2o1 (centres unmarked) [Example 335, N-[[6-(1,3-dimethylpyrazole-4-carbonyl)-6-azaspiro[2.5]octan-2-yl]methyl]furo[2,3-c]pyridine-2-carboxamide]
17 | 696 nM | CC(=O)Nc1cc(C(=O)N2CCC3(CC2)CC3CNC(=O)c2cc3ccncc3o2)ccn1 (centres unmarked) [Example 133, N-[[6-(2-acetamidopyridine-4-carbonyl)-6-azaspiro[2.5]octan-2-yl]methyl]furo[2,3-c]pyridine-2-carboxamide]
18 | 492 nM | O=C(NCC1CC12CCN(C(=O)c1cccc(-n3cnnc3)c1)CC2)c1cc2ccncc2o1 (centres unmarked) [Example 70, N-[[6-[3-(1,2,4-triazol-4-yl)benzoyl]-6-azaspiro[2.5]octan-2-yl]methyl]furo[2,3-c]pyridine-2-carboxamide]

Second part, the molecule before the results:

Row | Structure (SMILES) | IC50
19 | O=C(NCC1CC12CCN(C(=O)CCC(F)(F)F)CC2)c1cc2ccncc2o1 (centres unmarked) [Example 27, N-[[6-(4,4,4-trifluorobutanoyl)-6-azaspiro[2.5]octan-2-yl]methyl]furo[2,3-c]pyridine-2-carboxamide] | 842 nM
20 | Cc1cc(C(=O)N2CCC3(CC2)CC3CNC(=O)c2cc3ccncc3o2)n(C(C)(C)C)n1 (centres unmarked) [Example 308, N-[[6-(2-tert-butyl-5-methyl-pyrazole-3-carbonyl)-6-azaspiro[2.5]octan-2-yl]methyl]furo[2,3-c]pyridine-2-carboxamide] | 2000 nM
21 | CCn1nc(C)cc1C(=O)N1CCC2(CC1)CC2CNC(=O)c1cc2ccncc2o1 (centres unmarked) [Example 137, N-[[6-(2-ethyl-5-methyl-pyrazole-3-carbonyl)-6-azaspiro[2.5]octan-2-yl]methyl]furo[2,3-c]pyridine-2-carboxamide] | 116 nM
22 | CC(C)(C)CS(=O)(=O)N1CCC2(CC1)CC2CNC(=O)c1cc2ccncc2o1 (centres unmarked) [Example 378, N-[[6-(2,2-dimethylpropylsulfonyl)-6-azaspiro[2.5]octan-2-yl]methyl]furo[2,3-c]pyridine-2-carboxamide] | 2000 nM
23 | CC(=O)Nc1cccc(C(=O)N2CCC3(CC2)CC3CNC(=O)c2cc3ccncc3o2)c1 (centres unmarked) [Example 264, N-[[6-(3-acetamidobenzoyl)-6-azaspiro[2.5]octan-2-yl]methyl]furo[2,3-c]pyridine-2-carboxamide] | 245 nM
24 | N#Cc1ccccc1CC(=O)N1CCC2(CC1)CC2CNC(=O)N1Cc2ccncc2C1 (centres unmarked) [Example 357, N-[[6-[2-(2-cyanophenyl)acetyl]-6-azaspiro[2.5]octan-2-yl]methyl]-1,3-dihydropyrrolo[3,4-c]pyridine-2-carboxamide] | 10.6 nM
25 | O=C(Cc1cccnc1)N1CCC2(CC1)CC2CNC(=O)N1Cc2ccncc2C1 (centres unmarked) [Example 177] | 34.4 nM
26 | O=C(NCC1CC12CCN(C(=O)c1c[nH]nc1-n1cnnn1)CC2)c1cc2ccncc2o1 (centres unmarked) [Example 134, N-[[6-[3-(tetrazol-1-yl)-1H-pyrazole-4-carbonyl]-6-azaspiro[2.5]octan-2-yl]methyl]furo[2,3-c]pyridine-2-carboxamide] | 514 nM
27 | CN1CCC(C)(CC(=O)N2CCC3(CC2)CC3CNC(=O)N2Cc3ccncc3C2)CC1 (centres unmarked) [Example 356, N-[[6-[2-(1,4-dimethyl-4-piperidyl)acetyl]-6-azaspiro[2.5]octan-2-yl]methyl]-1,3-dihydropyrrolo[3,4-c]pyridine-2-carboxamide] | 7.62 nM
28 | CC(C)(C)CC(=O)N1CCC2(CC1)CC2CNC(=O)c1cc2ccncc2o1 (centres unmarked) [Example 29, N-[[6-(3,3-dimethylbutanoyl)-6-azaspiro[2.5]octan-2-yl]methyl]furo[2,3-c]pyridine-2-carboxamide] | 3.03 nM
29 | O=C(NCC1CC12CCN(C(=O)C(F)(F)c1ccccc1)CC2)N1Cc2ccncc2C1 (centres unmarked) [Example 230, N-[[6-(2,2-difluoro-2-phenyl-acetyl)-6-azaspiro[2.5]octan-2-yl]methyl]-1,3-dihydropyrrolo[3,4-c]pyridine-2-carboxamide] | 29.9 nM
30 | O=C(NCC1CC12CCN(C(=O)Cn1ccc(=O)[nH]c1=O)CC2)c1cc2ccncc2o1 (centres unmarked) [Example 81, N-[[6-[2-(2,4-dioxopyrimidin-1-yl)acetyl]-6-azaspiro[2.5]octan-2-yl]methyl]furo[2,3-c]pyridine-2-carboxamide] | 2000 nM
31 | CC(C)(C)OC(=O)N1Cc2[nH]nc(C(=O)N3CCC4(CC3)CC4CNC(=O)c3cc4ccncc4o3)c2C1 (centres unmarked) [Example 306, tert-butyl 3-[2-[(furo[2,3-c]pyridine-2-carbonylamino)methyl]-6-azaspiro[2.5]octane-6-carbonyl]-4,6-dihydro-1H-pyrrolo[3,4-c]pyrazole-5-carboxylate] | 38.8 nM
32 | CC1(C)CC1C(=O)N1CCC2(CC1)CC2CNC(=O)N1Cc2ccncc2C1 (centres unmarked) [Example 389, N-[[6-(2,2-dimethylcyclopropanecarbonyl)-6-azaspiro[2.5]octan-2-yl]methyl]-1,3-dihydropyrrolo[3,4-c]pyridine-2-carboxamide] | 0.575 nM
33 | CC(C)(C)OC(=O)N1CCC2(CC1)CC2CNC(=O)c1ccc2nccn2n1 (centres unmarked) [Example 402, tert-butyl 2-[(imidazo[1,2-b]pyridazine-6-carbonylamino)methyl]-6-azaspiro[2.5]octane-6-carboxylate] | 2000 nM
34 | O=C(NCc1ccccc1)N1CCC2(CC1)CC2CNC(=O)N1Cc2ccncc2C1 (centres unmarked) [Example 210, N-[[6-(benzylcarbamoyl)-6-azaspiro[2.5]octan-2-yl]methyl]-1,3-dihydropyrrolo[3,4-c]pyridine-2-carboxamide] | 316 nM
35 | O=C(NCC1CC12CCN(C(=O)NCc1ccc(Cl)c(Cl)c1)CC2)c1cc2ccncc2o1 (centres unmarked) [Example 168, N-[[6-[(3,4-dichlorophenyl)methylcarbamoyl]-6-azaspiro[2.5]octan-2-yl]methyl]furo[2,3-c]pyridine-2-carboxamide] | 2000 nM
